This note sets out measurements from ChEMBL document CHEMBL3739260, “Substituted 4-hydroxy-1,2,3-triazoles: synthesis, characterization and first drug design applications through bioisosteric modulation and scaffold hopping approaches” (Medchemcomm, 2015).

Structures are written as SMILES. Some results are limits rather than exact numbers.

A short description of series [1]: Dissociation constant, pKa of the compound. It is filed as physicochemical.
The next series deals with T1, Chitinase (Onchocerca volvulus, UniProt Q25615).
T1 sequence (Q25615 whole entry): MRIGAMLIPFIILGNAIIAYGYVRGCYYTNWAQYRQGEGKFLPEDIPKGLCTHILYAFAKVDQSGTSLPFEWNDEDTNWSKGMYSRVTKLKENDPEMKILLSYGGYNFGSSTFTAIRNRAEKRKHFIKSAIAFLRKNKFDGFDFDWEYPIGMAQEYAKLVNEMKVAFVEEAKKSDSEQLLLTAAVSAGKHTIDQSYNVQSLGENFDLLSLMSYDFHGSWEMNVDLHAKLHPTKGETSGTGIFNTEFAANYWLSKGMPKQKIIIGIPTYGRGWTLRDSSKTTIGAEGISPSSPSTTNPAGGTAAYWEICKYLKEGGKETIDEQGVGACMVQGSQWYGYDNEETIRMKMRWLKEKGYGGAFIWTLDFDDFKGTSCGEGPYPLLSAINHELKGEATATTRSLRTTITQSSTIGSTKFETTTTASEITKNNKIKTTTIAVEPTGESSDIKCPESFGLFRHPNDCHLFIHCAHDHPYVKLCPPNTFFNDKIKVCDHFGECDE
The series is described as follows: Inhibition of Onchocerca volvulus chitinase by fluorescence based assay.

Series [2] can be described thus: Displacement of [3H]KA from Kainate receptor in rat cortical synaptosomes. Type of series: subcellular.
Series [3] can be described thus: Displacement of [3H]AMPA from AMPA receptor in rat cortical synaptosomes. It is filed as subcellular.
For the next series, the target named is Glutamate NMDA receptor. The series is described as follows: Displacement of [3H]CGP39653 from NMDA receptor in rat cortical synaptosomes. Type of series: subcellular.

In turn, `CCOC(=O)c1nsnc1O` had a pKa in series [1] of 4.21.

Regarding `O=C(Nc1ccc(Oc2ccccc2)cc1)c1c(OCc2ccccc2)nnn1Cc1ccccc1`, the IC50 at Chitinase is 0.41 µM.

As for `CCOC(=O)c1cn(C)nc1O`, the pKa in series [1] came out at 6.71.

`CCOC(=O)c1nn(Cc2ccccc2)nc1O` had a pKa in series [1] of 5.14.

At Chitinase, `O=C(Nc1ccc(Oc2ccccc2)cc1)c1c(OCc2ccccc2)nnn1CC1CCCCC1` gave an IC50 of 0.52 µM.

`CCOC(=O)c1c(O)nnn1C` yielded a pKa in series [1] of 5.54.

Regarding `CCOC(=O)c1nonc1O`, in series [1], the pKa is 3.24.

Compound `CCOC(=O)c1nnn(C)c1O` returned a pKa in series [1] of 6.21.

As to `N[C@@H](Cc1nsnc1O)C(=O)O`, the IC50 in series [2] is > 100 µM; in series [3], 0.065 µM. Besides, the Ki at Glutamate NMDA receptor was > 100 µM.

In turn, `O=C(Nc1ccc(Oc2ccccc2)cc1)c1c(O)nnn1CC1CCCCC1` showed an IC50 on Chitinase of 5.11 µM.

`N[C@@H](CCC(=O)O)C(=O)O` [GLUTAMIC ACID]: in series [1], the pKa worked out at 4.2.

As for `Cn1nnc(O)c1C(=O)Nc1ccc(Oc2ccccc2)cc1`, the IC50 against Chitinase came out at 4.69 µM.

In series [1], `CCOC(=O)c1c(O)nnn1Cc1ccccc1` displayed a pKa of 5.38.

As for `CCOC(=O)c1nn(C)nc1O`, in series [1], the pKa was 5.14.

As to `O=C(Nc1ccc(Oc2ccccc2)cc1)c1nn(Cc2ccccc2)nc1OCc1ccccc1`, the concentration for half-maximal inhibition (IC50) against Chitinase was determined as 0.41 µM.

Take `Cn1nnc(O)c1CC(N)C(=O)O` (racemic): the pKa in series [1] was 6.42. Besides, the IC50 in series [2] was > 100 µM; in series [3], 1.4 µM. Besides, the Ki on Glutamate NMDA receptor was > 100 µM.

Take `CCOC(=O)c1nnn(Cc2ccccc2)c1O`: the pKa in series [1] is 6.22.

`Cn1nc(O)c(CC(N)C(=O)O)n1` (racemic): the IC50 in series [2] is > 100 µM. Also, the Ki at Glutamate NMDA receptor was > 100 µM.
